Assay [1] deals with IDO1 enzyme (Homo sapiens, UniProt P14902). Nature of the assay: Determination of biochemical activity of IDO1 enzyme (absorbance at 320 nm). As to conditions: room temperature, 3 hours. In outline:
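Enzyme and compound were reacted in sodium hydrogen phosphate buffer (pH 7-8) for 3 hours at room temperature. Absorbance at 320 nm gave inhibition rate, and IC50 was calculated from it.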

The target in assay [2] is T1, IDO1 enzyme in the Hela cell (Homo sapiens, UniProt P14902).
T1 construct: endogenous in cells; host or cells: HeLa cells stimulated with interferon γ (100 ng/ml)
T1 sequence (P14902 whole entry): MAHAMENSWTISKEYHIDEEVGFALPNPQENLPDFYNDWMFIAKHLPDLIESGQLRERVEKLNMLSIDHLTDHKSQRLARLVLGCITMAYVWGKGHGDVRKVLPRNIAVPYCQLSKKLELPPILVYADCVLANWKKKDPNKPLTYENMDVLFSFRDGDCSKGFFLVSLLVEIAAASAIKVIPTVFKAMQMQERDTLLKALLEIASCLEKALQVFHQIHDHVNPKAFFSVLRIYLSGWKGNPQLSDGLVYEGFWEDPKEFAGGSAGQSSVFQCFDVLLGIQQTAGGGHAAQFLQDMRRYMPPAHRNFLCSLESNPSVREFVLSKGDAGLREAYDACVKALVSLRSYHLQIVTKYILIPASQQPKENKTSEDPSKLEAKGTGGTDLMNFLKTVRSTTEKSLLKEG
Nature of the assay: Cell activity: interferon γ-stimulated Hela cells, absorbance of supernatant at 480 nm. In kind it is cell-based. As to conditions: interferon γ 100 ng/ml, 72 hours. In outline: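 HeLa cells treated with compound plus interferon γ (100 ng/ml final) and cultured 72 h at 37 °C. Supernatant treated with trichloroacetic acid 30 min at 50 °C, centrifuged, then mixed with 2% dimethylaminobenzaldehyde in acetic acid; absorbance read at 480 nm.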

IDO1 enzyme, sequence (P14902 whole entry): as above

As a reminder, the IC50 is the concentration needed to halve the response being measured. A lower IC50 goes with greater potency in that assay. As for `O=C(Nc1nonc1/C(=N/O)Nc1ccc(F)c(Br)c1)NC1CCNCC1` [Embodiment 11, (Z)-1-(4-(N-(3-bromo-4-fluorophenyl)-N′-hydroxyaminoiminomethyl)-1,2,5-oxadiazole-3-substituted)-3-(piperidine-4-substituted)urea], the IC50 in assay [1] and in assay [2] was under 0.001 µM in each case.

On to `O=C(Nc1ccccc1)Nc1conc1/C(=N/O)Nc1ccc(F)c(Cl)c1` [Embodiment 113, (Z)-1-(4-(N-(3-chloro-4-fluorophenyl)-N′-hydroxyaminoiminomethyl)-isoxazole-3-substituted)-4-phenylurea], for which the IC50 in assay [1] and in assay [2] was 0.1 to 1 µM throughout.

As to `COc1ccc(NC(=O)Nc2nonc2/C(=N/O)Nc2ccc(F)cc2)cc1` [Embodiment 54, (Z)-1-(4-(N-(4-fluorophenyl)-N′-hydroxyaminoiminomethyl)-1,2,5-oxadiazole-3-substituted)-3-(4-methoxyphenyl)urea], the half-inhibitory concentration (IC50) in assay [1] and in assay [2] was 0.1 to 1 µM throughout.

Consider `COc1ccccc1NC(=O)Nc1nonc1/C(=N/O)Nc1ccc(F)c(Br)c1` [Embodiment 3, (Z)-1-(4-(N-(3-bromo-4-fluorophenyl)-N′-hydroxyaminoiminomethyl)-1,2,5-oxadiazole-3-substituted)-3-(2-methoxyphenyl)urea], for which the IC50 in assay [1] and in assay [2] was over 1 µM in each case.

On to `O=C(Nc1ncncn1)Nc1nonc1/C(=N/O)Nc1ccc(F)c(Br)c1` [Embodiment 44, (Z)-1-(4-(N-(3-bromo-4-fluorophenyl)-N′-hydroxyaminoiminomethyl)-1,2,5-oxadiazole-3-substituted)-3-(1,3,5-triazine-2-substituted)urea], for which the IC50 in assay [1] and in assay [2] was over 1 µM each time.

As for `NCCNC(=O)Nc1nocc1/C(=N/O)Nc1ccc(F)c(Br)c1` [Embodiment 90, (Z)-1-(4-(N-(3-bromo-4-fluorophenyl)-N′-hydroxyaminoiminomethyl)-isoxazole-3-substituted)+3-(2-aminoethyl)urea], the half-maximal inhibitory concentration (IC50) in assay [1] and in assay [2] was under 0.001 µM in each case.

Turning to `CS(=O)(=O)N1CCN(C(=O)Nc2nonc2/C(=N/O)Nc2ccc(F)cc2)CC1` [Embodiment 53], the 50% inhibitory concentration (IC50) in assay [1] and in assay [2] was 0.1 to 1 µM each time.

With `CC(C)NC(=O)Nc1nocc1/C(=N/O)Nc1ccc(F)c(Br)c1` [Embodiment 92, (Z)-1-(4-(N-(3-bromo-4-fluorophenyl)-N′-hydroxyaminoiminomethyl)-isoxazole-3-substituted)-3-(isopropyl)urea], the IC50 in assay [1] and in assay [2] was 0.1 to 1 µM throughout.

As to `O=C(Nc1cocc1/C(=N/O)Nc1ccc(F)c(Br)c1)NC1CCCC1` [Embodiment 62, (Z)-1-(4-(N-(3-bromo-4-fluorophenyl)-N′-hydroxyaminoiminomethyl)-furan-3-substituted)-3-cyclopentylurea], the concentration for half-maximal inhibition (IC50) in assay [1] and in assay [2] was 0.1 to 1 µM in each case.

With `O=C(NCCCO)Nc1nonc1/C(=N/O)Nc1ccc(F)c(Br)c1` [Embodiment 13, (Z)-1-(4-(N-(3-bromo-4-fluorophenyl)-N′-hydroxyaminoiminomethyl)-1,2,5-oxadiazole-3-substituted)-3-(3-hydroxypropane)urea], the IC50 in assay [1] and in assay [2] was under 0.001 µM in each case.

Regarding `O=C(Nc1nonc1/C(=N/O)Nc1ccc(F)c(Br)c1)Nc1csc2ccccc12` [Embodiment 39, (Z)-1-(4-(N-(3-bromo-4-fluorophenyl)-N′-hydroxyaminoiminomethyl)-1,2,5-oxadiazole-3-substituted)-3-(benzothiophene-3-substituted)urea], the half-maximal inhibitory concentration (IC50) in assay [1] and in assay [2] was 0.1 to 1 µM each time.

In the case of `COc1ccc(NC(=S)Nc2nonc2/C(=N/O)Nc2ccc(F)c(Br)c2)cc1` [Embodiment 115, (Z)-1-(4-(N-(3-bromo-4-fluorophenyl)-N′-hydroxyaminoiminomethyl)-1,2,5-oxadiazole-3-substituted)-3-(4-methoxyphenyl)thiourea], the IC50 in assay [1] and in assay [2] was 0.1 to 1 µM each time.

Take `CS(=O)(=O)NCCCNC(=O)Nc1nonc1/C(=N/O)Nc1ccc(F)c(Br)c1` [Embodiment 17, (Z)-1-(4-(N-(3-bromo-4-fluorophenyl)-N′-hydroxyaminoiminomethyl)-1,2,5-oxadiazole-3-substituted)-3-(3-methamido-propyl)urea]: the IC50 in assay [1] and in assay [2] was under 0.001 µM throughout.

Take `NS(=O)(=O)NCCNC(=O)Nc1nonc1/C(=N/O)Nc1ccc(F)c(Cl)c1` [Embodiment 30]: the IC50 in assay [1] and in assay [2] was under 0.001 µM each time.

Take `CC(C)NC(=O)Nc1cocc1/C(=N/O)Nc1ccc(F)c(Br)c1` [Embodiment 71, (Z)-1-(4-(N-(3-bromo-4-fluorophenyl)-N′-hydroxyaminoiminomethyl)-furan-3-substituted)-3-isopropylurea]: the IC50 in assay [1] and in assay [2] was 0.1 to 1 µM throughout.

`COc1ccc(NC(=O)Nc2nonc2/C(=N/O)Nc2ccc(F)c(Br)c2)cc1C(F)(F)F` [Embodiment 21, (Z)-1-(4-(N-(3-bromo-4-fluorophenyl)-N′-hydroxyaminoiminomethyl)-1,2,5-oxadiazole-3-substituted)-3-(4-methoxy-2-trifluoromethylphenyl)urea]: the IC50 in assay [1] and in assay [2] was 0.1 to 1 µM each time.

Regarding `O=C(Nc1nonc1/C(=N/O)Nc1ccc(F)c(Br)c1)NC1CCCC1` [Embodiment 8, (Z)-1-(4-(N-(3-bromo-4-fluorophenyl)-N′-hydroxyaminoiminomethyl)-1,2,5-oxadiazole-3-substituted)-3-cyclopentylurea], the IC50 in assay [1] and in assay [2] was 0.1 to 1 µM throughout.

Turning to `O=C(Nc1nonc1/C(=N/O)Nc1ccc(F)c(Br)c1)NC1CCCCC1` [Embodiment 7, (Z)-1-(4-(N-(3-bromo-4-fluorophenyl)-N′-hydroxyaminoiminomethyl)-1,2,5-oxadiazole-3-substituted)-3-cyclohexylurea], the IC50 in assay [1] and in assay [2] was 0.1 to 1 µM each time.

On to `NC1CCC(NC(=O)Nc2nonc2/C(=N/O)Nc2ccc(F)c(Cl)c2)CC1` (stereo not drawn) [Embodiment 26], for which the half-maximal inhibitory concentration (IC50) in assay [1] and in assay [2] was under 0.001 µM in each case.

Take `O=C(Nc1conc1/C(=N/O)Nc1ccc(F)c(Br)c1)NC1CC1` [Embodiment 107, (Z)-1-(4-(N-(3-bromo-4-fluorophenyl)-N′-hydroxyaminoiminomethyl)-isoxazole-3-substituted)-4-cyclopropylurea]: the IC50 in assay [1] and in assay [2] was over 1 µM in each case.

`NCCNC(=O)Nc1cocc1/C(=N/O)Nc1ccc(F)c(Br)c1` [Embodiment 69, (Z)-1-(4-(N-(3-bromo-4-fluorophenyl)-N′-hydroxyaminoiminomethyl)-furan-3-substituted)-3-(2-aminoethyl)urea]: the IC50 in assay [1] and in assay [2] was 0.1 to 1 µM in each case.

For the compound `NS(=O)(=O)N1CCN(C(=O)Nc2nonc2/C(=N/O)Nc2ccc(F)cc2)CC1` [Embodiment 56], the IC50 in assay [1] and in assay [2] was under 0.001 µM throughout.

Turning to `Nc1ccc(NC(=O)Nc2nonc2/C(=N/O)Nc2ccc(F)c(Cl)c2)cc1` [Embodiment 24, (Z)-1-(4-(N-(3-chloro-4-fluorophenyl)-N′-hydroxyaminoiminomethyl)-1,2,5-oxadiazole-3-substituted)-3-(4-aminophenyl)urea], the IC50 in assay [1] and in assay [2] was under 0.001 µM throughout.

`COc1ccc(NC(=O)Nc2nocc2/C(=N/O)Nc2ccc(F)c(Cl)c2)cc1` [Embodiment 97, (Z)-1-(4-(N-(3-chloro-4-fluorophenyl)-N′-hydroxyaminoiminomethyl)-isoxazole-3-substituted)-3-(4-methoxyphenyl)urea]: the IC50 in assay [1] and in assay [2] was 0.1 to 1 µM in each case.

For the compound `NCCCNC(=O)Nc1nocc1/C(=N/O)Nc1ccc(F)c(Br)c1` [Embodiment 88, (Z)-1-(4-(N-(3-bromo-4-fluorophenyl)-N′-hydroxyaminoiminomethyl)-isoxazole-3-substituted)-3-(3-propyl)urea], the IC50 in assay [1] and in assay [2] was under 0.001 µM each time.

For the compound `O=C(Nc1nonc1/C(=N/O)Nc1ccc(F)c(Br)c1)Nc1coc2ccccc12` [Embodiment 38, (Z)-1-(4-(N-(3-bromo-4-fluorophenyl)-N′-hydroxyaminoiminomethyl)-1,2,5-oxadiazole-3-substituted)-3-(benzofuran-3-substituted)urea], the IC50 in assay [1] and in assay [2] was 0.1 to 1 µM each time.

With `NC1CCC(NC(=O)Nc2nocc2/C(=N/O)Nc2ccc(F)c(Br)c2)CC1` (stereo not drawn) [Embodiment 87, (Z)-1-(4-(N-(3-bromo-4-fluorophenyl)-N′-hydroxyaminoiminomethyl)-isoxazole-3-substituted)-3-(4-aminocyclohexyl)urea], the IC50 in assay [1] and in assay [2] was under 0.001 µM in each case.

On to `N=C(Nc1ccccc1)Nc1cocc1/C(=N/O)Nc1ccc(F)c(Br)c1` [Embodiment 161, (Z)-1-(4-(N-(3-bromo-4-fluorophenyl)-N′-hydroxyaminoiminomethyl)-furan-3-substituted)-3-phenylguanidine], for which the IC50 in assay [1] and in assay [2] was 0.1 to 1 µM throughout.

Regarding `O/N=C(\Nc1ccc(F)c(Br)c1)c1nonc1NC(=S)NC1CCNCC1` [Embodiment 124, (Z)-1-(4-(N-(3-bromo-4-fluorophenyl)-N′-hydroxyaminoiminomethyl)-1,2,5-oxadiazole-3-substituted)-3-(piperidine-4-substituted)thiourea], the IC50 in assay [1] and in assay [2] was under 0.001 µM throughout.

For the compound `OCCCNC(=S)Nc1nonc1/C(=N/O)Nc1ccc(F)c(Br)c1` [Embodiment 127, (Z)-1-(4-(N-(3-bromo-4-fluorophenyl)-N′-hydroxyaminoiminomethyl)-1,2,5-oxadiazole-3-substituted)-3-(3-hydroxypropyl)thiourea], the IC50 in assay [1] and in assay [2] was under 0.001 µM each time.

For the origin of these results see patent US11014895B2, “Heterocyclic urea compound, and drug composition and application thereof” (CHINA PHARMACEUTICAL UNIVERSITY, priority 2017, dated 2021).
